# Assay results: PMC4222048 (European journal of pharmacology, 2014)
# Residue numbers refer to the chain shown, from its start. Structures can show the parent of a compound that is named as a salt. Where two headings read alike, the source gives them in different places.
# Tests used:
# human K2P18.1 = molecular target: T1, human K2P18.1 (Homo sapiens, UniProt Q7Z418); assay: Thallium-flux assay, HEK293 cells transfected with human K2P18.1; format: cell-based; settings: for K2P18.1 Minimum Activity: fitted minimum, fixed at 0 where indicated
# T1 sequence (Q7Z418 1-384): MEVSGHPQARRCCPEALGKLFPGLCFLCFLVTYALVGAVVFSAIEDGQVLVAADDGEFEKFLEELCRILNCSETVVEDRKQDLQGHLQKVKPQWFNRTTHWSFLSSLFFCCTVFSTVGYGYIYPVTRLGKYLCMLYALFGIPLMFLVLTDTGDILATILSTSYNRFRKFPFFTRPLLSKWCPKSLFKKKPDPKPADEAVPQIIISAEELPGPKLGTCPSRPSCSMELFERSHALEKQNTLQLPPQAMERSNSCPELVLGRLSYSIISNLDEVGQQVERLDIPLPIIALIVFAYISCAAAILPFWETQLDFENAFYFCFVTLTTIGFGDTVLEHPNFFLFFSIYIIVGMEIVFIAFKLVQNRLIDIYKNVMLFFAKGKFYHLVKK
# K2P9.1 [1] = molecular target: T2, K2P9.1 (Homo sapiens, UniProt Q9NPC2); assay: Thallium-flux counter assay, tetracycline induced HEK293-K2P9.1 cells; format: cell-based; settings: for K2P9.1 Maximum Activity: dash = lack of compound activity
# T2 sequence (Q9NPC2 whole entry): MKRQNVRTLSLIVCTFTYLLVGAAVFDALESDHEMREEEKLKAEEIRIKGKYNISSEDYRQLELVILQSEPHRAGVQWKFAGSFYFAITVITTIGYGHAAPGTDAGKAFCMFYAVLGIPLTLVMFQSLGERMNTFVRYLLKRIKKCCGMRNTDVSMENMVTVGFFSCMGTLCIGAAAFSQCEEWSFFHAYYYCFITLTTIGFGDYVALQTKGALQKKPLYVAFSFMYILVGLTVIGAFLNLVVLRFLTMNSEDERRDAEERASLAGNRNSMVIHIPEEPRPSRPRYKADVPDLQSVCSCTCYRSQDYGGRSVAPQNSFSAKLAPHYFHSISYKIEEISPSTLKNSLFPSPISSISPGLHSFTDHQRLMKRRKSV
# [2] = molecular target: T3, wild type K2P18.1 (wtK2P18.1) (Homo sapiens, UniProt Q7Z418); assay: Whole-cell patch clamp, HEK293-wtK2P18.1; format: cell-based
# T3 sequence (Q7Z418 1-384): T1 sequence (Q7Z418 1-384)
# [3] = molecular target: T4, F145A/F352A double mutant K2P18.1 (mutK2P18.1) (Homo sapiens, UniProt Q7Z418, F145A/F352A); assay: Thallium-flux assay, F145A/F352A double mutant K2P18.1 in HEK293 cells; format: cell-based
# T4 sequence (Q7Z418 1-384 F145A/F352A): T1 sequence (Q7Z418 1-384) with F145A, F352A
# K2P9.1 [4] = molecular target: T2, K2P9.1; assay: Whole-cell patch clamp, tetracycline induced HEK293-K2P9.1 cells; format: cell-based
# [5] = molecular target: T4, F145A/F352A double mutant K2P18.1 (mutK2P18.1); assay: Whole-cell patch clamp, HEK293-mutK2P18.1; settings: read-out: inhibition of mutK2P18.1 current
# mouse K2P18.1 = settings: 1 mM; ref Kim et al., 2013; cited from earlier work
# [6] = test system: F156A/F364A double mutant mouse K2P18.1; settings: 1 mM; ref Kim et al., 2013; cited from earlier work
# [7] = validation assay, Tl+ flux, activators
# [8] = read-out: K2P18.1 EC50, validation assay, Tl+ flux, activators, highest 30 μM
# [9] = read-out: K2P9.1 EC50, validation assay, Tl+ flux, activators, highest 30 μM
# [10] = read-out: K2P9.1 IC50, validation assay, Tl+ flux, HEK293-K2P9.1, highest 30 μM
# [11] = read-out: inhibition of wtK2P18.1 current
compound,measurement,setting,value
"C[N+](C)(C)CCOC(N)=O [Carbachol, carbamoylcholine chloride, (2-Hydroxyethyl)trimethyl-ammonium chloride carbamate]",EC50,human K2P18.1,1.59 µM
same,K2P18.1 Maximum Activity,human K2P18.1; [7],190 (± 9.96) %
same,EC50,K2P9.1 [1],> 30 µM
same,K2P9.1 Maximum Activity,K2P9.1 [1]; [7],-
C[C@@H]1O[C@H](C[N+](C)(C)C)CS1.[I-] [OXA-22 Iodide],EC50,human K2P18.1; [8],0.06 µM
same,K2P18.1 Maximum Activity,human K2P18.1; [7],166 (± 4.50) %
same,EC50,K2P9.1 [1]; [9],> 30 µM
same,K2P9.1 Maximum Activity,K2P9.1 [1]; [7],-
COCC(=O)O[C@]1(CCN(C)CCCc2nc3ccccc3[nH]2)CCc2cc(F)ccc2[C@@H]1C(C)C [Mibefradil dihydrochloride],K2P18.1 Minimum Activity,"human K2P18.1; validation assay, Tl+ flux",11.9 (± 2.04) %
C/C=C1\C(=O)C[C@H]2[C@@H]3CCC4=CC(=O)CC[C@]4(C)[C@H]3CC[C@]12C [(Z)-Gugglesterone],K2P18.1 Minimum Activity,"human K2P18.1; validation assay, Tl+ flux",0 (fixed) %
same,IC50,K2P9.1 [1]; [10],> 30 µM
CC(C)c1ccc2c(c1)c(SC(C)(C)C)c(CC(C)(C)C(=O)O)n2Cc1ccc(Cl)cc1 [MK-886],K2P18.1 Minimum Activity,"human K2P18.1; validation assay, Tl+ flux",23.5 (± 6.6) %
same,IC50,K2P9.1 [1]; [10],> 30 µM
OCc1ccc(-c2nn(Cc3ccccc3)c3ccccc23)o1 [YC-1],K2P18.1 Minimum Activity,"human K2P18.1; validation assay, Tl+ flux",0 (fixed) %
same,IC50,K2P9.1 [1]; [10],> 30 µM
CCCn1c(C)c(C(=O)c2cccc3ccccc23)c2ccccc21 [JWH-015],K2P18.1 Minimum Activity,"human K2P18.1; validation assay, Tl+ flux",26.7 (± 2.1) %
same,IC50,K2P9.1 [1]; [10],> 30 µM
C[N+](C)(C)CC#CCN1CCCC1=O [Oxotremorine Methiodide],EC50,human K2P18.1,0.24 µM
same,K2P18.1 Maximum Activity,human K2P18.1; [7],171 (± 4.60) %
same,EC50,K2P9.1 [1],> 30 µM
same,K2P9.1 Maximum Activity,K2P9.1 [1]; [7],-
CCCCCCCCCCCCCC(=O)O[C@@H]1[C@@H](C)[C@@]2(O)[C@@H](C=C(CO)C[C@]3(O)C(=O)C(C)=C[C@@H]23)[C@@H]2C(C)(C)[C@]12OC(C)=O [Phorbol 12-myristate 13-acetate],EC50,human K2P18.1,0.03 µM
same,K2P18.1 Maximum Activity,human K2P18.1,130 (± 2.01) %
same,EC50,K2P9.1 [1],> 30 µM
same,K2P9.1 Maximum Activity,K2P9.1 [1]; [7],-
CCOC(=O)N1CCC(=C2c3ccc(Cl)cc3CCc3cccnc32)CC1 [Loratadine],K2P18.1 Minimum Activity,"human K2P18.1; validation assay, Tl+ flux",0 (fixed) %
same,IC50,[2],0.49 ± 0.23 µM
same,selectivity for K2P18.1 over K2P9.1,[2]; from patch clamp IC50 values,~ 11 fold
same,inhibition at 10 µM,[2]; [11],87.5 ± 3.7%
same,inhibition at 150 µM,"[3]; HEK293, read-out: inhibition against mutK2P18.1",< 50%
same,lower potency against mutK2P18.1 compared to wtK2P18.1,[3]; Tl+ flux,at least 50 fold
same,IC50,K2P9.1 [4],5.27 ± 1.69 µM
same,inhibition at 10 µM,[5],3.9 ± 13.3%
COc1cc2c(cc1OC)-c1c/c(=N\c3c(C)cc(C)cc3C)n(C)c(=O)n1CC2 [Trequinsin hydrochloride],K2P18.1 Minimum Activity,"human K2P18.1; validation assay, Tl+ flux",3.90 (± 20.2) %
same,IC50,K2P9.1 [1],> 30 µM
COC(=O)C1=CCCN(C)C1 [Arecoline hydrobromide],EC50,human K2P18.1,2.7 µM
same,K2P18.1 Maximum Activity,human K2P18.1; [7],155 (± 10.8) %
same,EC50,K2P9.1 [1],> 30 µM
same,K2P9.1 Maximum Activity,K2P9.1 [1]; [7],-
"Ic1ccccc1CNC1C2CCN(CC2)C1C(c1ccccc1)c1ccccc1.O=C(O)C(=O)O [L-703,606 oxalate]",K2P18.1 Minimum Activity,"human K2P18.1; validation assay, Tl+ flux",1.30 (± 9.2) %
"COc1cccc(-c2cc(=O)c3ccccc3o2)c1N [PD98,059]",K2P18.1 Minimum Activity,"human K2P18.1; validation assay, Tl+ flux",22.9 (± 23.3) %
same,IC50,K2P9.1 [1]; [10],> 30 µM
"CC1OCC(C[N+](C)(C)C)O1.[I-] (single isomer, unassigned; (+)) [(+)-cis-Dioxolane iodide]",EC50,human K2P18.1; [8],0.04 µM
same,K2P18.1 Maximum Activity,human K2P18.1; [7],165 (± 3.00) %
same,EC50,K2P9.1 [1]; [9],> 30 µM
same,K2P9.1 Maximum Activity,K2P9.1 [1]; [7],-
COc1cc([C@@H]2c3cc4c(cc3[C@H](O)[C@H]3COC(=O)[C@H]23)OCO4)cc(OC)c1OC [Podophyllotoxin],IC50,human K2P18.1,7.32 µM
same,K2P18.1 Minimum Activity,"human K2P18.1; validation assay, Tl+ flux",0 (fixed) %
same,IC50,K2P9.1 [1],> 30 µM
"Cc1c(CC(C)(C)C(=O)O)n(Cc2ccc(Cl)cc2)c2ccc(F)cc12 [L-655,240]",K2P18.1 Minimum Activity,"human K2P18.1; validation assay, Tl+ flux",0 (fixed) %
same,IC50,K2P9.1 [1]; [10],> 30 µM
CC[C@H](C)C(=O)O[C@H]1CCC=C2C=C[C@H](C)[C@H](CC[C@@H]3C[C@@H](O)CC(=O)O3)[C@H]21 [Mevastatin],K2P18.1 Minimum Activity,"human K2P18.1; validation assay, Tl+ flux",13.7 (± 7.6) %
same,IC50,K2P9.1 [1],> 30 µM
Cn1c(=O)c2c(nc(C=Cc3cccc(Cl)c3)n2C)n(C)c1=O [8-(3-Chlorostyryl)caffeine],K2P18.1 Minimum Activity,"human K2P18.1; validation assay, Tl+ flux",0 (fixed) %
same,IC50,K2P9.1 [1],> 30 µM
Clc1ccc(C(c2ccc(Cl)cc2)n2cc[n+](CC(OCc3ccc(Cl)cc3Cl)c3ccc(Cl)cc3Cl)c2)cc1 (centres unmarked) [Calmidazolium chloride],K2P18.1 Minimum Activity,"human K2P18.1; validation assay, Tl+ flux",0 (fixed) %
same,IC50,K2P9.1 [1],> 30 µM
Cl.Cl.Fc1ccc(C(OCCN2CCN(CCCc3ccccc3)CC2)c2ccc(F)cc2)cc1 [GBR-12909 dihydrochloride],K2P18.1 Minimum Activity,"human K2P18.1; validation assay, Tl+ flux",0 (fixed) %
same,IC50,K2P9.1 [1]; [10],> 30 µM
CN1CCN(C2Cc3ccccc3Sc3ccc(Cl)cc32)CC1.O=C(O)/C=C\C(=O)O (racemic) [(±)-Octoclothepin maleate],K2P18.1 Minimum Activity,"human K2P18.1; validation assay, Tl+ flux",0 (fixed) %
"CCN(CC)CC(=O)Nc1c(C)cccc1C [lidocaine, 2-Diethylamino-N-(2,6-dimethylphenyl)acetamide]",IC50,"human K2P18.1; IC50 for K2P18.1 inhibition without carbachol, Tl+ flux, absence of carbachol",3650 ± 380 µM
same,inhibition of wild type mouse K2P18.1,mouse K2P18.1,83 ± 5%
same,inhibition at 1000 µM,[2]; [11],65.2 ± 10.4%
same,IC50,[3],11600 ± 7100 µM
same,inhibition at 1000 µM,[5],18.2 ± 5.8%
same,inhibition of F156A/F364A double mutant mouse K2P18.1,[6],20 ± 15%
"CS(=O)(=O)O.Cc1c(C(=O)c2cccc3ccccc23)c2cccc3c2n1[C@H](CN1CCOCC1)CO3 [(R)-(+)-WIN 55,212–2 mesylate]",K2P18.1 Minimum Activity,"human K2P18.1; validation assay, Tl+ flux",25.6 (± 28.3) %
same,IC50,K2P9.1 [1]; [10],> 30 µM
CC(=O)c1c(O)c(C)c(O)c(Cc2c(O)c3c(c(C(=O)/C=C/c4ccccc4)c2O)OC(C)(C)C=C3)c1O [Rottlerin],IC50,human K2P18.1,16.2 µM
same,K2P18.1 Minimum Activity,"human K2P18.1; validation assay, Tl+ flux",17.2 (± 42.4) %
same,IC50,K2P9.1 [1],> 30 µM
Oligomycin A,K2P18.1 Minimum Activity,"human K2P18.1; validation assay, Tl+ flux",52.0 (± 4.21) %
"CCCCOC(=O)NS(=O)(=O)c1sc(CC(C)C)cc1-c1ccc(Cn2c(CC)nc3c(C)cc(C)nc32)cc1 [L-162,313]",K2P18.1 Minimum Activity,"human K2P18.1; validation assay, Tl+ flux",15.5 (± 12.5) %
same,IC50,K2P9.1 [1]; [10],> 30 µM
O=C(CCCN1CCC2(CC1)C(=O)NCN2c1ccccc1)c1ccc(F)cc1 [Spiperone Hydrochloride],EC50,human K2P18.1,3.02 µM
same,K2P18.1 Maximum Activity,human K2P18.1; [7],161 (± 4.90) %
same,EC50,K2P9.1 [1],> 30 µM
same,K2P9.1 Maximum Activity,K2P9.1 [1]; [7],-
CC(=O)OC(C)C[N+](C)(C)C.[Cl-] (stereo not drawn) [Acetyl-beta-methylcholine chloride],EC50,human K2P18.1; [8],0.65 µM
same,K2P18.1 Maximum Activity,human K2P18.1; [7],184 (± 2.38) %
same,EC50,K2P9.1 [1]; [9],> 30 µM
same,K2P9.1 Maximum Activity,K2P9.1 [1]; [7],-
CN(C)c1cc2c(Nc3ccc4c(cnn4Cc4ccccc4)c3)ncnc2cn1 [GW2974],K2P18.1 Minimum Activity,"human K2P18.1; validation assay, Tl+ flux",0 (fixed) %
Br.CO[C@H]1CC=C2CCN3CCC4=C(CC(=O)OC4)[C@]23C1 [Dihydro-beta-erythroidine hydrobromide],K2P18.1 Minimum Activity,"human K2P18.1; validation assay, Tl+ flux",0 (fixed) %
CCCC(=O)NCCc1c2n(c3ccc(OC)cc13)CCCc1ccccc1-2 [K185],K2P18.1 Minimum Activity,"human K2P18.1; validation assay, Tl+ flux",0 (fixed) %
same,IC50,K2P9.1 [1]; [10],> 30 µM
